pEC50, pIC50: −log10 of the molar value. Where two headings read alike, the source gives them in different places.

From article PMC8982737, “Discovery of S-217622, a Noncovalent Oral SARS-CoV-2 3CL Protease Inhibitor Clinical Candidate for Treating COVID-19” (Journal of Medicinal Chemistry, 2022) come the findings set out here.

For data set [1] the following is noted: male, Sprague-Dawley, rat, in vivo; for CL (total clearance): iv.
A further data set has as its target SARS-CoV-2 3CL protease (Severe acute respiratory syndrome coronavirus 2, UniProt P0DTD1). The data set can be described thus: biochemical. It is filed as biochemical. As to conditions: for pIC50: read-out: SARS-CoV-2 3CLpro IC50.
The conditions of data set [2]: both, human, microsomes, 0.5 h, 0.5 μM, pH 7.4.
The conditions of data set [3]: male, rat, microsomes, 0.5 h, 0.5 μM, pH 7.4.
A further data set concerns SARS-CoV-2. The data set can be described thus: microbe, parasite or virus in culture. It is filed as cell-based.
The next data set relates to HCoV-OC43. Put plainly: microbe, parasite or virus in culture. It is filed as cell-based. The note with it: Betacoronavirus 1, OC43, MRC5, read-out: EC90 against HCoV-OC43.
The subject of the next data set is SARS-CoV. The data set can be described thus: microbe, parasite or virus in culture. It is filed as cell-based. As to conditions: Severe acute respiratory syndrome coronavirus, VeroE6/TMPRSS2, read-out: EC50 against SARS-CoV.
Another data set concerns MERS-CoV. Put plainly: microbe, parasite or virus in culture. It is filed as cell-based. The note with it: Middle East respiratory syndrome-related coronavirus, VeroE6/TMPRSS2, read-out: EC50 against MERS-CoV.
In a further data set the test system is HCoV-229E. Put plainly: microbe, parasite or virus in culture. It is filed as cell-based. As to conditions: Human coronavirus 229E, MRC5, read-out: EC50 against HCoV-229E.
The subject of a further data set is VeroE6/TMPRSS2 cells. The note with it: African green monkey.

Regarding `CNC(=O)Cn1c(=O)[nH]/c(=N\c2ccc(OC(F)F)cc2C)n(Cc2cc(F)c(F)c(F)c2)c1=O` [Compound 1, (4E)-2-(4-{[4-(Difluoromethoxy)-2-methylphenyl]imino}-2,6-dioxo-3-(3,4,5-trifluorobenzyl)-1,3,5-triazinan-1-yl)-N-methylacetamide], in data set [1], the “CL (total clearance)” value turned out to be 7.3 mL/min/kg and the “Oral F (oral bioavailability)” value worked out at 111%. Moreover, at SARS-CoV-2 3CL protease, the pIC50 was 5.07.
For the compound `CNC(=O)Cn1c(=O)[nH]/c(=N\c2cc3cn(C)nc3cc2Cl)n(Cc2cc(F)c(F)c(F)c2)c1=O` [Compound 2, (4E)-2-{4-[(6-Chloro-2-methyl-2H-indazol-5-yl)imino]-2,6-dioxo-3-(3,4,5-trifluorobenzyl)-1,3,5-triazinan-1-yl)-N-methylacetamide], in data set [1], the “CL (total clearance)” value is listed as 4.9 mL/min/kg and the “Oral F (oral bioavailability)” value came to 29.6%. In data set [2], the “HLM, percentage remaining after 30 min” value stood at 94.8%. For the same compound, the “RLM, percentage remaining after 30 min” value in [3] was 94.3%. For the same compound, the pEC50 in the data set with SARS-CoV-2 (Severe acute respiratory syndrome coronavirus 2, VeroE6/TMPRSS2, molecular formula strings csv, read-out: VeroE6/TMPRSS2 EC50) is 4.90. Further, the negative-log IC50 (pIC50) on SARS-CoV-2 3CL protease is 7.02. For the same compound, on SARS-CoV-2 3CL protease (relative to hit compound 1), the “improvement in enzymatic inhibitory activity” value is on record as 90 fold.
Regarding `CNC(=O)Cn1c(=O)[nH]/c(=N\c2ccc(OC)cc2C)n(Cc2cc(F)c(F)c(F)c2)c1=O` [Compound 13], the pIC50 at SARS-CoV-2 3CL protease was 5.72.
With `CNC(=O)Cn1c(=O)[nH]/c(=N\c2ccc(OC)cc2)n(Cc2cc(F)c(F)c(F)c2)c1=O` [Compound 14], the pIC50 on SARS-CoV-2 3CL protease was 5.55.
In the case of `CNC(=O)Cn1c(=O)nc(Nc2cc3sc(C)nc3cc2C)n(Cc2cc(F)c(F)c(F)c2)c1=O` [Compound 15], the pIC50 at SARS-CoV-2 3CL protease was 5.46.
Regarding `CNC(=O)Cn1c(=O)[nH]/c(=N\c2cc3sc(C)nc3cc2C)n(Cc2ccccc2)c1=O` [Compound 16], at SARS-CoV-2 3CL protease, the pIC50 is 4.24.
Consider `CNC(=O)Cn1c(=O)[nH]/c(=N\c2cc3sc(C)nc3cc2C)n(Cc2ccccc2F)c1=O` [Compound 17], for which the pIC50 at SARS-CoV-2 3CL protease was 4.46.
As to `CNC(=O)Cn1c(=O)nc(Nc2cc3sc(C)nc3cc2C)n(Cc2cccc(F)c2)c1=O` [Compound 18], at SARS-CoV-2 3CL protease, the negative logarithm of the IC50 (pIC50) is 4.54.
On to `CNC(=O)Cn1c(=O)nc(Nc2cc3sc(C)nc3cc2C)n(Cc2ccc(F)cc2)c1=O` [Compound 19], for which, at SARS-CoV-2 3CL protease, the pIC50 is 4.80.
In the case of `CCC(CC)COC(=O)[C@H](C)N[P@](=O)(OC[C@H]1O[C@@](C#N)(c2ccc3c(N)ncnn23)[C@H](O)[C@@H]1O)Oc1ccccc1` [Remdesivir, reference compound], in the data set on HCoV-OC43, the EC90 is 24 nM. In addition, the pEC50 with SARS-CoV is 5.89; in the data set on MERS-CoV, 5.82; with HCoV-229E, 7.39; in the data set on SARS-CoV-2 (Severe acute respiratory syndrome coronavirus 2, VeroE6/TMPRSS2, strain hCoV-19/Japan/QHN001/2020 (Alpha, B.1.1.7), mean, read-out: EC50 on cytopathic effects), 6.01; with SARS-CoV-2 (Severe acute respiratory syndrome coronavirus 2, VeroE6/TMPRSS2, strain hCoV-19/Japan/QHN002/2020 (Alpha, B.1.1.7), mean, read-out: EC50 on cytopathic effects), 6.00; with SARS-CoV-2 (Severe acute respiratory syndrome coronavirus 2, VeroE6/TMPRSS2, strain hCoV-19/Japan/QK002/2020 (Alpha, B.1.1.7), mean, read-out: EC50 on cytopathic effects) it was 6.06. Besides, the pEC50 is 5.68 in the data set with SARS-CoV-2 (Severe acute respiratory syndrome coronavirus 2, VeroE6/TMPRSS2, strain hCoV-19/Japan/TY7-501/2021 (Gamma, P.1), mean, read-out: EC50 on cytopathic effects); 6.00 in the data set with SARS-CoV-2 (Severe acute respiratory syndrome coronavirus 2, VeroE6/TMPRSS2, strain hCoV-19/Japan/TY7-503/2021 (Gamma, P.1), mean, read-out: EC50 on cytopathic effects); 5.92 in the data set on SARS-CoV-2 (Severe acute respiratory syndrome coronavirus 2, VeroE6/TMPRSS2, strain hCoV-19/Japan/TY8-612/2021 (Beta, B.1.351), mean, read-out: EC50 on cytopathic effects); 5.80 in the data set with SARS-CoV-2 (Severe acute respiratory syndrome coronavirus 2, VeroE6/TMPRSS2, strain hCoV-19/Japan/TY11-927-P1/2021 (Delta, B.1.617.2), mean, read-out: EC50 on cytopathic effects); 5.96 with SARS-CoV-2 (Severe acute respiratory syndrome coronavirus 2, VeroE6/TMPRSS2, strain hCoV-19/Japan/TY38-873/2021 (Omicron, B.1.1.529), mean, read-out: EC50 on cytopathic effects); 5.72 in the data set with SARS-CoV-2 (Severe acute respiratory syndrome coronavirus 2, VeroE6/TMPRSS2, read-out: EC50 on cytopathic effects). Further, the CC50 with VeroE6/TMPRSS2 cells is above 100000 nM.

One may read the pIC50 as −log10 of the IC50, conventionally taken in molar units. By EC90 is commonly meant the concentration at which the effect reaches the 90% level. One may read the CC50 as the concentration that lowers cell viability or growth by half.
